Columns and labels:
E14 dopamine neurons = assay: Internalization experiment on dopaminergic neurons; type: cell-based, Mouse; settings: 30,000 cpm of iodinated protein, 37° C., 2 hr, acid wash
Method: Mouse E13.5 dopamine neurons grown on the 24 well plate in culture were incubated with 30,000 cpm of iodinated CDNF or C-CDNF per well at 37° C. 2 hr. The cells were transferred to ice and washed once with 0.5 ml of the ice cold media. Then cells were transferred to Eppendorf tubes and washed at 4° C. once with 0.2M acetic acid, 0.5M NaCl, pH 2.8. After centrifugation at 1000 g for 10 min cells were dissolved in 0.5 ml of 0.5 N NaOH and counted on the gamma counter.

ER stressed SCG neurons = assay: Survival of tunicamycin-treated (ER stressed) SCG sympathetic neurons after microinjection; type: cell-based, mice; settings: for survived neurons as % compared to neurons grown in the presence of NGF: microinjected into cytoplasm, CDNF (400); for Fold change of survived neurons compared to neurons injected with PBS: data of Table 1 divided by values of PBS
Procedure, shortened: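 Newborn mouse SCG neurons grown 5-6 days with 30 ng/ml NGF, then microinjected with CDNF (FL or C-terminal) plasmids (10 ng/ul, EGFP reporter) or proteins (200 ng/ul, Dextran Texas Red). Tunicamycin (2 μM) added next day. Fluorescent survivors counted blindly after 3 days as % of initial; compared with vector or PBS (ANOVA/Dunnett).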

rat 6-OHDA model of PD = assay: Neurorestoration study in 6-OHDA model of PD in rats; type: in vivo
dopamine neurons = assay: Survival of TH-positive dopamine neurons in dissociated midbrain floor cultures; type: cell-based, mouse; settings: for survived neurons as % compared to neurons grown in the presence of GDNF / protection of dopaminergic neurons in culture (result in words): 5 days; for protection of dopaminergic neurons in culture (result in words): added to the culture medium, TH-positive neurons counted; for Fold change of survived neurons compared to neurons grown without growth factors: data of Table 3 divided by values of no factor
Procedure, shortened: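 Dissociated E13.5 NMRI mouse midbrain floor neurons grown five days in DMEM/F12 with N2, with polypeptides at a range of concentrations, GDNF (100 ng/ml), or nothing. TH-immunopositive neurons were counted by imaging. Values are a percentage of GDNF-maintained TH-positive neurons, as mean ± SEM from at least three independent cultures.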

[1] = tested on: mouse beta cell proliferation; assay: Beta cell proliferation assay; type: cell-based; settings: mouse islets cultured in vitro for 5 days
Method: Islets from female, virgin 8 weeks old C57bl6Rcc mice were isolated. Islets were recovered o/n in growth medium and the next day equal numbers of islets/well (70/well) were treated for 5 days with placental lactogen (PL 500 ng/ml), C-MANF, or MANF. Half of the medium was changed daily to fresh medium with growth factors. Edu, a nucleoside analog alternatively to BrdU (Click-iT® Edu proliferation kit, Invitrogen) was added 48 hrs prior to islet harvesting. Islets were broken with trypsin and centrifuged onto glass slides in cytocentrifuge. Cells were fixed after cytospins and proliferating cells stained with Click-iT AlexaFluor azide color reagent, followed by insulin staining (guinea-pig 1:200, Abcam, Cambridge, UK) o/n at +4° C. to detect beta cells. Cells were washed and stained with secondary antibodies conjugated with Alexa Fluor® 488 (1:400, Molecular Probes, Life Technologies, CA, USA). […] Twelve images (10× magnification) were acquired with Fluorescence Zeiss Axiolmager M2 482 epifluorescence microscope equipped with 40×/Plan-Apochromat/0.95 Corr M27 and 63×/Plan-Apochromat/1.40 Oil/M27 and 483 AxioCam HRm camera using AxioVision4 software and analysed by Image Pro Plus software (Media Cybernetics, Bethesda, MD, USA) to quantify number of DAPI-positive nuclei. The relative numbers of proliferating beta cells were quantified and compared to wells of three to five repeats/treatment.

[2] = rat, in vivo, sc
Method: CDNF, C-CDNF and C-MANF were iodinated with ^125I-Na using the lactoperoxidase method. The protein in question was dissolved in 30 μl of 0.25 M phosphate buffer, pH 7.5, and mixed with ^125I-Na (1 mCi/2.8 μl; 1 mCi=37 mBq; GE Healthcare). The reaction was started by adding lactoperoxidase 10 μl of 50 μg/ml and 0.05% H2O2. The mixture was incubated at room temperature for 20 min and the reaction was stopped by adding 3 volumes of 0.1 M phosphate buffer, pH 7.5, containing 0.1 M NaI, 0.42 M NaCl, and then 25 μl of 2.5% BSA was added. Free iodine and iodinated protein were separated by gel filtration on Sephadex G-25 columns (PM10; GE Healthcare). For column equilibrium and elution, 0.1 M phosphate buffer, pH 7.5, with 1% BSA was used. The iodinated growth factors were sometimes concentrated by using YM-10 Centricon columns (Millipore). The specific activity of ^125I-labeled CDNF, C-CDNF and C-MANF was measured on the Wizard 3 1480 Automatic Gamma Counter (Perkin Elmer, Wallac) and was about 10^8 cpm/μg protein. The labelled protein were kept at 4° C. and used within 3 weeks after labelling.
^125I-CDNF, ^125I C-CDNF or ^125I C-MANF (all proteins at 10^6 cpm in 10 μl) were injected subcutaneously to adult male Wistar rats. […] Radioactivity was analyzed in different brain regions by gamma counter. […] The differences between groups were analyzed ANOVA followed by Tukey-Kramers post hoc test.

[3] = Table 1B (FIG. 16), exp1, tunicamycin 2 μM, counted after 3 days
[4] = Table 1B (FIG. 16), exp2, tunicamycin 2 μM, counted after 3 days
[5] = Table 1B (FIG. 16), exp3, tunicamycin 2 μM, counted after 3 days
[6] = Table 3B (FIG. 17), AVG, 1 ng/ml
[7] = Table 3B (FIG. 17), AVG, 10 ng/ml
[8] = Table 3B (FIG. 17), AVG, 100 ng/ml
[9] = Table 3B (FIG. 17), AVG, 1000 ng/ml

## ^125I-CDNF: CDNF iodinated with 125I-Na using the lactoperoxidase method
E14 dopamine neurons
  internalization into dopamine neurons (radioactivity inside the cells): but not ^125I-CDNF is efficiently internalized

## TLDLASVDLRKMRVAELKQILHSWGEECRACAE (listed as Homo sapiens) [pep15]
ER stressed SCG neurons; [3]
  survived neurons as % compared to neurons grown in the presence of NGF: 70.17 % NGF
ER stressed SCG neurons; [4]
  survived neurons as % compared to neurons grown in the presence of NGF: 61.81 % NGF
ER stressed SCG neurons; [5]
  survived neurons as % compared to neurons grown in the presence of NGF: 71.42 % NGF
ER stressed SCG neurons; protein or peptide microinjected into the cytoplasm, tunicamycin 2 μM, living fluorescent neurons counted after 3 days
  rescue of ER stressed SCG neurons (result in words): rescue
Rat 6-OHDA model of PD; subcutaneous injections 50 μg twice a week for 4 weeks starting two weeks post-lesion, p<0.001 vs vehicle
  protection against 6-OHDA-induced impairment in motor imbalance (amphetamine-induced rotational behavior): effective
Dopamine neurons; [6]
  survived neurons as % compared to neurons grown in the presence of GDNF: 73.72 % GDNF
Dopamine neurons; [7]
  survived neurons as % compared to neurons grown in the presence of GDNF: 87.03 % GDNF
Dopamine neurons; [8]
  survived neurons as % compared to neurons grown in the presence of GDNF: 93.53 % GDNF
Dopamine neurons; [9]
  survived neurons as % compared to neurons grown in the presence of GDNF: 86.15 % GDNF
Dopamine neurons
  protection of dopaminergic neurons in culture (result in words): best protective effect

## CKGC [MANF4, reference compound]
Rat 6-OHDA model of PD; infused into the striatum starting 2 weeks after 6-OHDA lesioning, rotations up to 12 weeks post lesioning
  efficacy on amphetamine-induced rotations: not effective

## TLDLASVDLRKMRVAELKQILHSWGEECRARACAEKTDYVNLIQELAPKYA (Mutated C-CDNF peptide) [pep11]
ER stressed SCG neurons; [3]
  survived neurons as % compared to neurons grown in the presence of NGF: 46.25 % NGF
ER stressed SCG neurons; [4]
  survived neurons as % compared to neurons grown in the presence of NGF: 48.61 % NGF
ER stressed SCG neurons; [5]
  survived neurons as % compared to neurons grown in the presence of NGF: 44.64 % NGF
Dopamine neurons; [6]
  survived neurons as % compared to neurons grown in the presence of GDNF: 59.60 % GDNF
Dopamine neurons; [7]
  survived neurons as % compared to neurons grown in the presence of GDNF: 60.76 % GDNF
Dopamine neurons; [8]
  survived neurons as % compared to neurons grown in the presence of GDNF: 69.28 % GDNF
Dopamine neurons; [9]
  survived neurons as % compared to neurons grown in the presence of GDNF: 70.22 % GDNF

## KYEKTLDLASVDLRKMRVAELKQILHSWGEECRACAEKTDYVNLIQELAP (listed as Homo sapiens) [pep7]
ER stressed SCG neurons; Table 1A (FIG. 14), AVG of exp1-2, tunicamycin 2 μM
  survived neurons as % compared to neurons grown in the presence of NGF: 80.76 % NGF
ER stressed SCG neurons; Table 1A (FIG. 14), exp1, tunicamycin 2 μM, counted after 3 days
  survived neurons as % compared to neurons grown in the presence of NGF: 76.67 % NGF
ER stressed SCG neurons; Table 1A (FIG. 14), exp2, tunicamycin 2 μM, counted after 3 days
  survived neurons as % compared to neurons grown in the presence of NGF: 84.85 % NGF
ER stressed SCG neurons; Table 2, AVG
  Fold change of survived neurons compared to neurons injected with PBS: 2.19 Fold to PBS
ER stressed SCG neurons; Table 2, exp1
  Fold change of survived neurons compared to neurons injected with PBS: 2.24 Fold to PBS
ER stressed SCG neurons; Table 2, exp2
  Fold change of survived neurons compared to neurons injected with PBS: 2.14 Fold to PBS
Dopamine neurons; Table 3A (FIG. 15), AVG, 1 ng/ml
  survived neurons as % compared to neurons grown in the presence of GDNF: 70.12 % GDNF
Dopamine neurons; Table 3A (FIG. 15), AVG, 10 ng/ml
  survived neurons as % compared to neurons grown in the presence of GDNF: 76.13 % GDNF
Dopamine neurons; Table 3A (FIG. 15), AVG, 100 ng/ml
  survived neurons as % compared to neurons grown in the presence of GDNF: 72.36 % GDNF
Dopamine neurons; Table 3A (FIG. 15), AVG, 1000 ng/ml
  survived neurons as % compared to neurons grown in the presence of GDNF: 79.07 % GDNF
Dopamine neurons; Table 3A (FIG. 15), exp1, 1 ng/ml
  survived neurons as % compared to neurons grown in the presence of GDNF: 67.76 % GDNF
Dopamine neurons; Table 3A (FIG. 15), exp1, 10 ng/ml
  survived neurons as % compared to neurons grown in the presence of GDNF: 63.47 % GDNF
Dopamine neurons; Table 3A (FIG. 15), exp1, 100 ng/ml
  survived neurons as % compared to neurons grown in the presence of GDNF: 62.89 % GDNF
Dopamine neurons; Table 3A (FIG. 15), exp1, 1000 ng/ml
  survived neurons as % compared to neurons grown in the presence of GDNF: 64.02 % GDNF
Dopamine neurons; Table 3A (FIG. 15), exp2, 1 ng/ml
  survived neurons as % compared to neurons grown in the presence of GDNF: 73.36 % GDNF
Dopamine neurons; Table 3A (FIG. 15), exp2, 10 ng/ml
  survived neurons as % compared to neurons grown in the presence of GDNF: 83.50 % GDNF
Dopamine neurons; Table 3A (FIG. 15), exp2, 100 ng/ml
  survived neurons as % compared to neurons grown in the presence of GDNF: 79.82 % GDNF
Dopamine neurons; Table 3A (FIG. 15), exp2, 1000 ng/ml
  survived neurons as % compared to neurons grown in the presence of GDNF: 86.37 % GDNF
Dopamine neurons; Table 3A (FIG. 15), exp3, 1 ng/ml
  survived neurons as % compared to neurons grown in the presence of GDNF: 69.24 % GDNF
Dopamine neurons; Table 3A (FIG. 15), exp3, 10 ng/ml
  survived neurons as % compared to neurons grown in the presence of GDNF: 81.41 % GDNF
Dopamine neurons; Table 3A (FIG. 15), exp3, 100 ng/ml
  survived neurons as % compared to neurons grown in the presence of GDNF: 74.38 % GDNF
Dopamine neurons; Table 3A (FIG. 15), exp3, 1000 ng/ml
  survived neurons as % compared to neurons grown in the presence of GDNF: 86.80 % GDNF
Dopamine neurons; Table 4, AVG, 1 ng/ml
  Fold change of survived neurons compared to neurons grown without growth factors: 1.14 fold
Dopamine neurons; Table 4, AVG, 10 ng/ml
  Fold change of survived neurons compared to neurons grown without growth factors: 1.23 fold
Dopamine neurons; Table 4, AVG, 100 ng/ml
  Fold change of survived neurons compared to neurons grown without growth factors: 1.17 fold
Dopamine neurons; Table 4, AVG, 1000 ng/ml
  Fold change of survived neurons compared to neurons grown without growth factors: 1.28 fold
Dopamine neurons; Table 4, exp1, 1 ng/ml
  Fold change of survived neurons compared to neurons grown without growth factors: 1.19 fold
Dopamine neurons; Table 4, exp1, 10 ng/ml
  Fold change of survived neurons compared to neurons grown without growth factors: 1.11 fold
Dopamine neurons; Table 4, exp1, 100 ng/ml
  Fold change of survived neurons compared to neurons grown without growth factors: 1.10 fold
Dopamine neurons; Table 4, exp1, 1000 ng/ml
  Fold change of survived neurons compared to neurons grown without growth factors: 1.12 fold
Dopamine neurons; Table 4, exp2, 1 ng/ml
  Fold change of survived neurons compared to neurons grown without growth factors: 1.16 fold
Dopamine neurons; Table 4, exp2, 10 ng/ml
  Fold change of survived neurons compared to neurons grown without growth factors: 1.32 fold
Dopamine neurons; Table 4, exp2, 100 ng/ml
  Fold change of survived neurons compared to neurons grown without growth factors: 1.27 fold
Dopamine neurons; Table 4, exp2, 1000 ng/ml
  Fold change of survived neurons compared to neurons grown without growth factors: 1.37 fold
Dopamine neurons; Table 4, exp3, 1 ng/ml
  Fold change of survived neurons compared to neurons grown without growth factors: 1.07 fold
Dopamine neurons; Table 4, exp3, 10 ng/ml
  Fold change of survived neurons compared to neurons grown without growth factors: 1.26 fold
Dopamine neurons; Table 4, exp3, 100 ng/ml
  Fold change of survived neurons compared to neurons grown without growth factors: 1.15 fold
Dopamine neurons; Table 4, exp3, 1000 ng/ml
  Fold change of survived neurons compared to neurons grown without growth factors: 1.34 fold

B1: KYDKQIDLSTVDLKKLRVKELKKILDDWGETCKGCAEKSDYIRKINELMPKYAPKAASARTDL (protein, listed as Homo sapiens)
chain: KYDKQIDLSTVDLKKLRVKELKKILDDWGETCKGCAEKSDYIRKINELMPKYAPKAASARTDL
[1]
  mouse beta cell proliferation (incorporation of Click EdU): stimulates
[2]
  blood-brain-barrier penetration: capable of penetrating
Dopamine neurons
  protection of dopaminergic neurons in culture (result in words): protects
Dopamine neurons; listed as C-terminal MANF fragment
  protection of dopaminergic neurons in culture (result in words): potently protected
